Assays:
Format in all cases: in vivo
[1] = tested on: Diabrotica balteata (Corn Root Worm); assay: Diabrotica balteata (corn root worm), sprayed maize sprouts; conditions: 96 h, application rate of 200 ppm, L2 larvae on maize sprouts, 4 days after infestation
Protocol: Example B2: Diabrotica balteata (Corn Root Worm)
Maize sprouts, placed on an agar layer in 24-well microtiter plates were treated with aqueous test solutions prepared from 10′000 ppm DMSO stock solutions by spraying. After drying, the plates were infested with L2 larvae (6 to 10 per well). The samples were assessed for mortality and growth inhibition in comparison to untreated samples 4 days after infestation.

[2] = tested on: Plutella xylostella (Diamond Back Moth); assay: Plutella xylostella (diamond back moth), treated artificial diet; conditions: 120 h, application rate of 200 ppm, L2 larvae on artificial diet, 5 days after infestation, read-out: effect in at least one of the two categories (mortality or growth inhibition)
In short: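 Artificial diet treated with aqueous dilutions of DMSO stocks (10′000 ppm stock), dried, then infested with 10-15 L2 larvae per well. Mortality and growth inhibition assessed versus untreated controls 5 days after infestation.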

[3] = tested on: Spodoptera littoralis (Egyqptian Cotton Leaf Worm); assay: Spodoptera littoralis (Egyptian cotton leaf worm), sprayed cotton leaf discs; conditions: foliar, 72 h, application rate of 200 ppm, L1 larvae on cotton leaf discs, 3 days after infestation
In short: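 Cotton leaf discs on agar were sprayed with aqueous dilutions made from 10′000 ppm DMSO stocks, then infested after drying with five L1 larvae. Mortality, anti-feedant effect and growth inhibition were scored against untreated discs 3 days after infestation. Control means at least one of these exceeds the untreated sample.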

[4] = tested on: Aedes aegypti (Yellow Fever Mosquito); assay: Activity against Aedes aegypti (yellow fever mosquito), dried deposits in tissue culture plates; conditions: application rate of 200 ppm in ethanol, adult females, after 48 h
Protocol: Example B12: Activity Against Aedes aegypti (Yellow Fever Mosquito)
Test solutions, at an application rate of 200 ppm in ethanol, were applied to 12-well tissue culture plates. Once the deposits were dry, five, two to five days old adult female Aedes aegypti were added to each well, and sustained with a 10% sucrose solution in a cotton wool plug. Assessment of knockdown was made one hour after introduction, and mortality was assessed at 24 and 48 hours after introduction.
The following compounds gave at least 80% control of Aedes aegypti after 48 h: […]

[5] = tested on: Frankliniella occidentalis (Western Flower Thrips); assay: Frankliniella occidentalis (western flower thrips), sprayed sunflower leaf discs; conditions: foliar, 168 h, application rate of 200 ppm, mixed ages on sunflower leaf discs, 7 days after infestation
Protocol: Example B11: Frankliniella occidentalis (Western Flower Thrips)
Sunflower leaf discs were placed on agar in 24-well microtiter plates and sprayed with aqueous test solutions prepared from […] stock solutions. After drying the leaf discs were infested with a Frankliniella population of mixed ages. The samples were assessed for mortality 7 days after infestation.

[6] = tested on: Bemisia tabaci (Cotton White Fly); assay: Bemisia tabaci (cotton white fly), sprayed cotton leaf discs; conditions: foliar, 144 h, application rate of 200 ppm, adult white flies on cotton leaf discs, 6 days after incubation
Protocol: Example B1: Bemisia tabaci (Cotton White Fly)
Cotton leaf discs were placed on agar in 24-well microtiter plates and sprayed with aqueous test solutions prepared from 10′000 ppm DMSO stock solutions. After drying the leaf discs were infested with adult white flies. The samples were checked for mortality 6 days after incubation.

[7] = tested on: Thrips tabaci (Onion Thrips); assay: Thrips tabaci (onion thrips), sprayed sunflower leaf discs; conditions: foliar, 144 h, application rate of 200 ppm, mixed ages on sunflower leaf discs, 6 days after infestation
Protocol: Example B10: Thrips tabaci (Onion Thrips)
Sunflower leaf discs were placed on agar in 24-well microtiter plates and sprayed with aqueous test solutions prepared from 10′000 ppm DMSO stock solutions. After drying the leaf discs were infested with a thrips population of mixed ages. The samples were assessed for mortality 6 days after infestation.

[8] = tested on: Myzus persicae (Green Peach Aphid); assay: Myzus persicae (green peach aphid), sprayed sunflower leaf discs; conditions: foliar, 144 h, application rate of 200 ppm, mixed ages on sunflower leaf discs, 6 days after infestation
Protocol: Example B4: Myzus persicae (Green Peach Aphid)
Sunflower leaf discs were placed on agar in a 24-well microtiter plate and sprayed with aqueous test solutions prepared from 10′000 ppm DMSO stock solutions. After drying, the leaf discs were infested with an aphid population of mixed ages. The samples were assessed for mortality 6 days after infestation.

[9] = tested on: Euschistus heros (Neotropical Brown Stink Bug); assay: Euschistus heros (neotropical brown stink bug), sprayed soybean leaf; conditions: 120 h, application rate of 200 ppm, N-2 nymphs on soybean leaf, 5 days after infestation
Protocol: Example B3: Euschistus heros (Neotropical Brown Stink Bug)
Soybean leaf on agar in 24-well microtiter plates were sprayed with aqueous test solutions prepared from 10′000 ppm DMSO stock solutions. After drying the leaf were infested with N-2 nymphs. The samples were assessed for mortality in comparison to untreated samples 5 days after infestation.

[10] = tested on: Spodoptera littoralis (Egyqptian Cotton Leaf Worm); assay: Spodoptera littoralis (Egyptian cotton leaf worm), compound in agar taken up by lettuce roots; conditions: 144 h, test rate of 12.5 ppm, uptake by lettuce roots from agar, 6 days after infestation, read-out: effect in at least one of the three categories (mortality, anti-feedancy, or growth inhibition)
In short: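 Compound mixed into agar from a 10′000 ppm DMSO stock and taken up over 7 days by lettuce roots; cut leaves then infested with Spodoptera eggs. Mortality, anti-feedant effect and growth inhibition scored against untreated samples 6 days after infestation.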

[11] = tested on: Tetranychus urticae (Two-Spotted Spider Mite); assay: Tetranychus urticae (two-spotted spider mite), sprayed bean leaf discs; conditions: foliar, 192 h, application rate of 200 ppm, mixed population (mobile stages) on bean leaf discs, 8 days after infestation
Protocol: Example B9: Tetranychus urticae (Two-Spotted Spider Mite)
Bean leaf discs on agar in 24-well microtiter plates were sprayed with aqueous test solutions prepared from 10′000 ppm DMSO stock solutions. After drying the leaf discs were infested with a mite population of mixed ages. The samples were assessed for mortality on mixed population (mobile stages) 8 days after infestation.

[12] = tested on: Myzus persicae (Green Peach Aphid); assay: Myzus persicae (green peach aphid), roots of pea seedlings in test solution; conditions: 144 h, test rate of 24 ppm, roots of infested pea seedlings in test solution, 6 days
Protocol: Example B5: Myzus persicae (Green Peach Aphid)
Roots of pea seedlings infested with an aphid population of mixed ages were placed directly in the aqueous test solutions prepared from 10′000 DMSO stock solutions. The samples were assessed for mortality 6 days after placing seedlings in test solutions.

CCS(=O)(=O)c1cc(-n2cc(Br)cn2)cnc1-c1nc2cc(C(F)(F)F)ncc2n1C [Compound P17]
≥ 80%: mortality at 200 ppm [1] | percent effect (mortality or growth inhibition) at 200 ppm [2] | percent control (mortality, anti-feedant effect or growth inhibition) at 200 ppm [3] | pest or weed control at 200 ppm [4] | mortality at 200 ppm [5] | mortality at 200 ppm [6] | mortality at 200 ppm [7]

CCS(=O)(=O)c1cc(-n2cc(C(F)(F)F)cn2)cnc1-c1nc2cc(C(F)(F)F)ncc2n1C [Compound P85]
≥ 80%: mortality at 200 ppm [1] | mortality at 200 ppm [8] | percent effect (mortality or growth inhibition) at 200 ppm [2] | mortality at 200 ppm [9] | percent control (mortality, anti-feedancy or growth inhibition) at 12.5 ppm [10] | percent control (mortality, anti-feedant effect or growth inhibition) at 200 ppm [3] | pest or weed control at 200 ppm [4] | mortality at 200 ppm [5] | mortality at 200 ppm [6] | mortality at 200 ppm [7]

CCS(=O)(=O)c1cc(-c2ccoc2)cnc1-c1nc2cc(C(F)(F)F)ncc2n1C [Compound P71]
≥ 80%: mortality at 200 ppm [1] | mortality at 200 ppm [8] | percent effect (mortality or growth inhibition) at 200 ppm [2] | mortality at 200 ppm [9] | percent control (mortality, anti-feedancy or growth inhibition) at 12.5 ppm [10] | mortality at 200 ppm [11]

CCS(=O)(=O)c1cc(-n2cc(Cl)cn2)cnc1-c1nc2cc(C(F)(F)F)ncc2n1C [Compound P16, 2-[5-(4-chloropyrazol-1-yl)-3-ethylsulfonyl-2-pyridyl]-3-methyl-6-(trifluoromethyl)imidazo[4,5-c]pyridine]
≥ 80%: mortality at 200 ppm [1] | mortality at 200 ppm [8] | percent effect (mortality or growth inhibition) at 200 ppm [2] | mortality at 200 ppm [9] | percent control (mortality, anti-feedancy or growth inhibition) at 12.5 ppm [10] | percent control (mortality, anti-feedant effect or growth inhibition) at 200 ppm [3] | pest or weed control at 200 ppm [4] | mortality at 200 ppm [5] | mortality at 200 ppm [6] | mortality at 200 ppm [7]

CCS(=O)(=O)c1cc(-c2ncc(Cl)cn2)cnc1-c1nc2cc(C(F)(F)F)ncc2n1C [Compound P11]
≥ 80%: mortality at 200 ppm [1] | mortality at 200 ppm [8] | percent effect (mortality or growth inhibition) at 200 ppm [2] | mortality at 200 ppm [9] | percent control (mortality, anti-feedancy or growth inhibition) at 12.5 ppm [10] | percent control (mortality, anti-feedant effect or growth inhibition) at 200 ppm [3] | pest or weed control at 200 ppm [4] | mortality at 200 ppm [5] | mortality at 200 ppm [6] | mortality at 200 ppm [7]

CCS(=O)(=O)c1cc(-c2nccc(C(F)(F)F)n2)cnc1-c1nc2cc(C(F)(F)F)ncc2n1C [Compound P100]
≥ 80%: mortality at 200 ppm [1] | mortality at 200 ppm [8] | percent effect (mortality or growth inhibition) at 200 ppm [2] | mortality at 200 ppm [9] | percent control (mortality, anti-feedancy or growth inhibition) at 12.5 ppm [10] | percent control (mortality, anti-feedant effect or growth inhibition) at 200 ppm [3] | pest or weed control at 200 ppm [4] | mortality at 200 ppm [5] | mortality at 200 ppm [6] | mortality at 200 ppm [7]

CCS(=O)(=O)c1cc(-c2ccc(Cl)cn2)cnc1-c1nc2cc(C(F)(F)F)ncc2n1C [Compound P20]
≥ 80%: mortality at 200 ppm [1] | mortality at 200 ppm [8] | percent effect (mortality or growth inhibition) at 200 ppm [2] | mortality at 200 ppm [9] | percent control (mortality, anti-feedancy or growth inhibition) at 12.5 ppm [10] | percent control (mortality, anti-feedant effect or growth inhibition) at 200 ppm [3] | pest or weed control at 200 ppm [4] | mortality at 200 ppm [5] | mortality at 200 ppm [6] | mortality at 200 ppm [7]

CCS(=O)(=O)c1cc(-c2ncc(C#N)cn2)cnc1-c1nc2cc(C(F)(F)F)ncc2n1C [Compound P111]
≥ 80%: mortality at 200 ppm [1] | mortality at 200 ppm [8] | percent effect (mortality or growth inhibition) at 200 ppm [2] | mortality at 200 ppm [9] | mortality at 24 ppm [12] | percent control (mortality, anti-feedant effect or growth inhibition) at 200 ppm [3] | pest or weed control at 200 ppm [4] | mortality at 200 ppm [5] | mortality at 200 ppm [6] | mortality at 200 ppm [7]

CCS(=O)(=O)c1cc(-n2cnc(Cl)n2)cnc1-c1nc2cc(C(F)(F)F)ncc2n1C [Compound P106]
≥ 80%: mortality at 200 ppm [1] | mortality at 200 ppm [8] | percent effect (mortality or growth inhibition) at 200 ppm [2] | mortality at 200 ppm [9] | mortality at 24 ppm [12] | percent control (mortality, anti-feedant effect or growth inhibition) at 200 ppm [3] | mortality at 200 ppm [5] | mortality at 200 ppm [6] | mortality at 200 ppm [7]

CCS(=O)(=O)c1cc(-n2cc(C#N)cn2)cnc1-c1nc2cc(C(F)(F)F)ncc2n1C [Compound P94]
≥ 80%: mortality at 200 ppm [1] | mortality at 200 ppm [8] | percent effect (mortality or growth inhibition) at 200 ppm [2] | mortality at 200 ppm [9] | mortality at 24 ppm [12] | percent control (mortality, anti-feedant effect or growth inhibition) at 200 ppm [3] | pest or weed control at 200 ppm [4] | mortality at 200 ppm [5] | mortality at 200 ppm [6] | mortality at 200 ppm [7]

Reference: US9809587B2, “Pesticidally active heterocyclic derivatives with sulphur containing substituents” (Syngenta Participations AG, priority 2014, dated 2017)
